Where a chain is given by its changes, count along the chain named. Values belong to the molecule of their own block, whether it stands above or below them.
Experiments:
all the ALDH1A isoforms = assay: In vitro enzymatic inhibition assays, text summary for ALDH1A isoforms; assay type: biochemical
ALDH+ cells = assay: FACS isolated single cells in microfluidic culture, cell death; assay type: cell-based
Procedure: (§1) In order to determine if the loss of CD133 or ALDH expressing cells is due to downregulation/loss of enzyme function or due to cell death, FACS isolated CD133+ or ALDH+ cells were treated as single cells in microfluidic culture. 673 treatment was associated with the death of ˜93% of CD133+ cells and 65% death of ALDH+ cells (FIG. 1B).

CD133+ cells = assay: as above; assay type: cell-based
Procedure: as §1

[1] = test system: ovarian cancer cell lines including A2780, SKOV3, and OvCAR8; assay: MTT assay, ovarian cancer cell lines; assay type: cell-based, human; details: 72 hours, range over cell lines
Procedure: (§2) TD50 ranged from 12-50 uM.

A2780 = assay: MTT assay, A2780 viability; assay type: cell-based, human
Procedure: as §2

[2] = test system: pancreatic cancer cell lines and breast cancer cell lines (ASPC, PANC1, MCF7); assay: MTT toxicity screen, pancreatic and breast cancer cell lines; assay type: cell-based
Procedure: A. MTT assay of cytotoxicity of indicated compounds at increasing doses 72 hours after treatment of ovarian cancer cell. B. MTT assay for pancreatic (ASPC and PANC1) and breast cancer (MCF7) cell lines. C. MTT assays of 673 for normal cells (HOSE and MSC) and ovarian cancer (OvCAR8) controls.
as §2

[3] = test system: FACS isolated CD133+A2780 cells; assay: Tumor sphere forming assay, CD133+ A2780; assay type: cell-based, human; details: single treatment with 10 μM
Procedure: (§3) Tumor associated ascites cells were isolated by centrifugation and treated with ACK lysis buffer (Fischer Scientific). 5000 cells were placed in each well of the 6-well ultra-low adherence plates (Corning, Acton, Mass., USA) with 3 ml of supplemented MEBM (Lonza). After 24 hours, cells were treated with either media alone or UM #673. Media was added every 3-4 days, and all tumor sphere counts were done at 2 weeks. Alternatively, sphere assays were also performed with cancer cell lines A2780 and OVCAR8. Cells in culture were trypsinized and 2000 cells were either directly placed or FACS isolated for CD133+ and CD133− cells before plating in wells of ultra-low adherence plates. Images of spheres were photographed using the Olympus Microsuite Biological suite Software.
(§4) In order to further characterize UM #673 activity targeting OvCSC, a functional CSC assay was performed. Tumor sphere forming assays were performed with both FACS isolated CD133+A2780 cells and OVCAR8 cells (a cell line with >90% CD133 expression). […] This assay was repeated using primary human ovarian cancer associated ascites cell from three patients. Treatment with 673 was associated with an average of 7.3 fold (range 4-50) reduction in the number of spheres formed (FIG. 4A).

OVCAR8 cells = assay: Tumor sphere forming assay, OVCAR8; assay type: cell-based, human
Procedure: as §3, §4

[4] = test system: primary human ovarian cancer associated ascites cell; assay: Tumor sphere forming assay, primary ascites cells; assay type: cell-based; details: three patients, range 4-50
Procedure: as §3, §4

[5] = test system: in vitro treated, PI-/Annexin-FACS isolated live cells; assay: Tumor initiation capacity of in vitro treated live cells injected into mice; assay type: in vivo
Procedure: An important functional aspect of a cancer stem cell is the ability to initiate tumors with limited cell numbers. In order to determine if UM673 could impact tumor initiation, cells were treated in vitro with a single dose of UM673 alone or in combination with cisplatin. Cells were allowed to recover for three days and then PI(−)/Annexin(−) live cells were faxed isolated and injected into mice. 200, 1000, or 5000 cells from each treatment group (n=4-10/group) were injected.

[6] = test system: A2780 tumor cell xenografts; assay: A2780 tumor cell xenografts, tumor growth; assay type: in vivo, mice; details: unsorted A2780 cells, treatment from day 3
Procedure: (§5) 6-8 week old nude female mice were purchased from Charles River Laboratories. All xenograft experiments were performed with approval of the University Committee on Use and Care of Animals of the University of Michigan. To generate tumors, 7.5×10^4 unsorted A2780 cells or 7500 CD133+ sorted A2780 cells were combined with 100 μl of DPBS and 100 μl of Matrigel (BD Biosciences), and then implanted subcutaneously into bilateral axillae of each mouse. 3 days after inoculation with tumors, mice were given an intra-peritoneal injection of (1) control DMSO 40 μl, (2) Cisplatin 250 μg/ml, (3) UM #673 10 μM, or (4) Cisplatin plus UM #673 (n=9 mice per treatment group). Tumor growth was measured using calipers, and tumor volume was calculated based on the modified ellipsoid formula (L×W×W/2), where L is the length and W is the width of the tumor. The mice were euthanized when tumors reached 1.5 to 2 cm^3 and animal safety euthanasia guidelines were met. Intraperitoneal tumors were generated using 5×10^6 OVCAR8 in […] of PBS and injected I.P. 3 days after inoculation, mice were given intra-peritoneal injection of Cisplatin or Cisplatin plus UM #673.
The impact of UM673 as a single agent was evaluated. NOD/SCID mice were inoculated with 1×10^5 unsorted A2780 cells and treatment was initiated three days after tumor inoculation with either vehicle control or UM #673. […] This is consistent with other studies of CSC targeting agents.
The experiments were repeated in combination with cisplatin. In addition, xenografts from both whole cell line and FACS isolated CD133+ cells were treated.

[7] = test system: isolated CD133+ cancer stem cells initiated tumors; assay: CD133+ cancer stem cell initiated tumors, tumor growth; assay type: in vivo, mice; details: single agent
Procedure: as §5
The impact of UM673 as a single agent was evaluated. NOD/SCID mice were inoculated with 1×10^5 unsorted A2780 cells and treatment was initiated three days after tumor inoculation with either vehicle control or UM #673. […]

[8] = test system: primary human tumor xenografts; assay: Primary human tumor xenografts from chemotherapy refractory ovarian cancer; assay type: in vivo, mice
Source text: In order to confirm in vivo activity against primary ovarian cancers, primary human tumor xenografts were generated from a patient with chemotherapy refractory ovarian cancer. Xenografts were allowed to grow until they reached ˜500 mm^3, and then treatment with either vehicle, cisplatin or cisplatin and UM 673 was initiated. […] After discontinuation of therapy, tumor regrowth was observed after approximately 4 weeks (FIG. 5D).

[9] = test system: Annexin-V staining (apoptosis); assay: PI/Annexin-V FACS analysis; assay type: cell-based
Procedure: PI/Annexin-V FACS analysis of UM673 treated cells was performed to determine if cells were undergoing apoptosis.

intracellular calcium = assay: Fluorescent analysis of intra-cellular calcium; assay type: cell-based
Procedure: Programmed cell necrosis is known to be linked with decreases in cellular ATP and an increase in intracellular calcium. […] Furthermore, reduction in CD 133 positive cells with UM 673 treatment could be partially abrogated by the calcium scavenging compound BAPTA (FIG. 6E). As program cell necrosis is known to be activated via the RIP kinases, the impact of the RIP kinase inhibitor necrostatin was evaluated.

UCP1 and UCP3 = assay: qRT-PCR of necrosis associated genes; assay type: cell-based
Procedure: (§6) ALDH1A isoforms are the primary members of the ‘retinaldehyde’ subgroup of aldehyde dehydrogenases. Retinaldehydes play a primary role in the biosynthesis of retinoic acid and thereby regulate retinoic acid mediated transcription. Retinoic acid transcription changes in cells treated with UM673 were assayed. […] 80× induction of the mitochondrial uncoupling proteins UCP1 and UCP3 was observed (FIG. 7B).

Oct4, and Sox2 = assay: qRT-PCR of stem cell genes; assay type: cell-based
Procedure: as §6

[10] = test system: cellular oxygen consumption; assay: SeaHorse cellular metabolism studies; assay type: cell-based
Procedure: UCP1 and UCP3 proteins play a critical role in cellular metabolism. The impact of UM673 on cellular metabolism was evaluated.

mitochondrial metabolism = assay: LCMS of cellular metabolites; assay type: cell-based
A2770 cells = assay: FACS analysis of CD133 and ALDH expressing cells; assay type: cell-based
[11] = test system: normal human ovarian surface epithelial cells; details: 72 h
Procedure: (§7) 7500 of HOSE, MSC, and OVCAR8 cells were plated on a 96-well plate and rested for 24 hours. They were then treated with incremental doses of 673 for 72 hours. They were then analyzed according to the Vybrant® MTT Cell Proliferation Assay Kit (Invitrogen).
(§8) The toxicity of these compounds versus normal human ovarian surface epithelial cells and healthy adipose derived mesenchymal stem cells was assayed.

[12] = test system: healthy adipose derived mesenchymal stem cells; details: human, 72 h
Procedure: as §7, §8

ALDH1A1 (WT) = target: T1, ALDH1A1 (WT) (Homo sapiens, UniProt P00352); assay: In vitro enzymatic inhibition assay, ALDH1A1 (WT); assay type: biochemical; details: 2 min incub
T1 sequence (P00352 1-501): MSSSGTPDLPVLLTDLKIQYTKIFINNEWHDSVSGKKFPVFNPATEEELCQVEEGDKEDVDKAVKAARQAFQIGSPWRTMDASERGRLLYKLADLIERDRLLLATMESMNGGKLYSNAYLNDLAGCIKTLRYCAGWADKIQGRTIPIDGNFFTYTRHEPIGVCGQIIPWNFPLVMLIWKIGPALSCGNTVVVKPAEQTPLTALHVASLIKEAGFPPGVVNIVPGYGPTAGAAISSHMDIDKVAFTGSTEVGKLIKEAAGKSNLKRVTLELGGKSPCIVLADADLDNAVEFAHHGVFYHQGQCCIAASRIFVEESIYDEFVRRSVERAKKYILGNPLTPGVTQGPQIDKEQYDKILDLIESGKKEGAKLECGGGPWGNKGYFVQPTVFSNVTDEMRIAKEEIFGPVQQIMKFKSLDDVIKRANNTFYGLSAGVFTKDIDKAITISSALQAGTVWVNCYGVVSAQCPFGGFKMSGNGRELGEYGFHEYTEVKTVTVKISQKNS

ALDH1A1 (S121) = target: T2, ALDH1A1 (S121) (Homo sapiens, UniProt P00352, N121S); assay: In vitro enzymatic inhibition assay, ALDH1A1 (S121); assay type: biochemical
T2 sequence (P00352 1-501 N121S): T1 sequence (P00352 1-501) with N121S

ALDH1A2 = target: T3, ALDH1A2 (Homo sapiens, UniProt O94788); assay: In vitro enzymatic inhibition assay, ALDH1A2; assay type: biochemical
T3 sequence (O94788 1-518): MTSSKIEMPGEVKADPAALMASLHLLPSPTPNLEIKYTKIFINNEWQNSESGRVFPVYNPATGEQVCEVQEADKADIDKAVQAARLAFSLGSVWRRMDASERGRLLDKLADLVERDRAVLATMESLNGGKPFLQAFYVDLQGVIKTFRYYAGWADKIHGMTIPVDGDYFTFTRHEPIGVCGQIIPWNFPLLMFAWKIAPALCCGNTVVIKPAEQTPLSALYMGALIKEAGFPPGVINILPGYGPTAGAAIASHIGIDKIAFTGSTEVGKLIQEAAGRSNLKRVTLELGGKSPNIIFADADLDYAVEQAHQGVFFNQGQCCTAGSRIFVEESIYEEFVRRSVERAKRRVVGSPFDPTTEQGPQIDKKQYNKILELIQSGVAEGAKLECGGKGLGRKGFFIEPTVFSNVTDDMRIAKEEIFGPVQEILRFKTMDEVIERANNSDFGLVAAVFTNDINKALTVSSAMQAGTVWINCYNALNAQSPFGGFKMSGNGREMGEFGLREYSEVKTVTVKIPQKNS

ALDH1A3 = target: T4, ALDH1A3 (Homo sapiens, UniProt P47895); assay: In vitro enzymatic inhibition assay, ALDH1A3; assay type: biochemical
T4 sequence (P47895 1-512): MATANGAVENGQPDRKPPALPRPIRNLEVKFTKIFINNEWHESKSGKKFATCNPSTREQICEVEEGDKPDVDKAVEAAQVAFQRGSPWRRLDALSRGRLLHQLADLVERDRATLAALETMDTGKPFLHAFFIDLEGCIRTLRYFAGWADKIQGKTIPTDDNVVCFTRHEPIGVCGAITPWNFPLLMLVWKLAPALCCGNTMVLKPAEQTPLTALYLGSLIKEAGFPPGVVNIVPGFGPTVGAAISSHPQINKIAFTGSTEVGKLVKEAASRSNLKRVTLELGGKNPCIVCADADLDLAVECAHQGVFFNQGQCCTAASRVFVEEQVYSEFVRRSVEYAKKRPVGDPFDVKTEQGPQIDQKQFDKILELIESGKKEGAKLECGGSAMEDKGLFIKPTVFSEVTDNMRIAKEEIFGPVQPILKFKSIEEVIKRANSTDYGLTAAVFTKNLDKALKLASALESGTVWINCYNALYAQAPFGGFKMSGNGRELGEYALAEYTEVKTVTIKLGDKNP

ALDH3A1 = ALDH3A1 (Homo sapiens, UniProt P30838); assay: In vitro enzymatic inhibition assay, ALDH3A1; assay type: biochemical
Chain of ALDH3A1 (P30838 whole entry): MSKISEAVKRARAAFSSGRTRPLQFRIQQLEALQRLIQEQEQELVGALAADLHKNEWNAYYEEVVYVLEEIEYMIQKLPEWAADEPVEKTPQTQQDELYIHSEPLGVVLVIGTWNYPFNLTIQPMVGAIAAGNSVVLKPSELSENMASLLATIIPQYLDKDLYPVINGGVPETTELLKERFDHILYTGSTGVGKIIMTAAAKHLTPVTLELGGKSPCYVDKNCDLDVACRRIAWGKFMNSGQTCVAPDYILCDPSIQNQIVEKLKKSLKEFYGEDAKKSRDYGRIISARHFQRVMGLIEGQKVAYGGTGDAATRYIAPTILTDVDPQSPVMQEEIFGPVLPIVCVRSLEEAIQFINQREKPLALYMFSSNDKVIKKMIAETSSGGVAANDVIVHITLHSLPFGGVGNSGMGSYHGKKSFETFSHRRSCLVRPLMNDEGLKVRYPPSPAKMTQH

Molecule: Cc1cc(N2Cc3ccccc3C2)ccc1C=O [UM673]
IC50 (all the ALDH1A isoforms): < 230 nM
death of ALDH+ cells (ALDH+ cells): 65%
death of CD133+ cells (CD133+ cells): ~93%
TD50 [1]: 12 to 50 µM
lowest dose with measurable effects on A2780 viability (A2780): 2.5 µM
cytotoxicity versus bulk populations [2]: variable modest cytotoxicity
decrease in sphere number [3]: 2.6 fold
reduction in total cell number [3]: ~8 fold
decrease in sphere formation (OVCAR8 cells): 5.6 fold
reduction total cell numbers (OVCAR8 cells): 3 fold
average reduction in the number of spheres formed [4]: 7.3 fold
tumor initiation (tumors/injections) ([5]; 200 cells injected): 2/4
tumor initiation (tumors/injections) ([5]; 1000 cells injected): 4/4
tumor initiation (tumors/injections) ([5]; 5000 cells injected): 4/5
effect on tumor initiation capacity ([5]; compared to untreated controls): neither cisplatin or UM673 affected tumor initiation
tumor growth [6]: statistically significant reduction in tumor growth
tumor growth ([6]; listed as UM 673): modest restrictions in tumor growth
tumor growth [7]: Greatest activity
time to tumor regrowth after discontinuation of therapy ([8]; mouse, in vivo): approximately 4 weeks
tumor growth ([8]; treatment started at ˜500 mm^3): prevented tumor regrowth
Annexin-V staining [9]: not associated with an increase in Annexin-V staining
increase in intracellular calcium (intracellular calcium): fourfold increase
induction of the mitochondrial uncoupling proteins UCP1 and UCP3 (UCP1 and UCP3): 80 ×
expression of stem cell factors Oct4 and Sox2 (Oct4, and Sox2): down regulated
cellular oxygen consumption [10]: slow and steady decline
levels of citrate (mitochondrial metabolism): marked decrease
loss of ALDH+ and CD133+ cells (A2770 cells): reductions in not only ALDH+ cells, but also CD133+ cells
TD50 [11]: ~105 µM
TD50 [12]: ~105 µM

IC50 (ALDH1A1 (WT)): 519 ± 75 nM
IC50 (ALDH1A1 (S121)): 1490 ± 240 nM
IC50 (ALDH1A2): > 20000 nM
IC50 (ALDH1A3): > 20000 nM
IC50 (ALDH3A1): > 20000 nM
Molecule: DEAB [reference compound]

Reference: patent US9468632B2, “Methods and compositions for targeting cancer stem cells” (The Regents of the University of Michigan, priority 2012, dated 2016)
